In US7897629B2, “Therapeutic compounds” (Allergan, Inc., priority 2006, dated 2011):

Tests used:
EP2 [1] = molecular target: T1, EP2 (Homo sapiens, UniProt P43116); assay: EP2 Ca2+ signal assay; type: cell-based
EP2 [2] = molecular target: T1, EP2; assay: EP2 binding assay
EP2 [3] = molecular target: T1, EP2; assay: EP2 cAMP functional assay; type: cell-based

T1 sequence (P43116 whole entry): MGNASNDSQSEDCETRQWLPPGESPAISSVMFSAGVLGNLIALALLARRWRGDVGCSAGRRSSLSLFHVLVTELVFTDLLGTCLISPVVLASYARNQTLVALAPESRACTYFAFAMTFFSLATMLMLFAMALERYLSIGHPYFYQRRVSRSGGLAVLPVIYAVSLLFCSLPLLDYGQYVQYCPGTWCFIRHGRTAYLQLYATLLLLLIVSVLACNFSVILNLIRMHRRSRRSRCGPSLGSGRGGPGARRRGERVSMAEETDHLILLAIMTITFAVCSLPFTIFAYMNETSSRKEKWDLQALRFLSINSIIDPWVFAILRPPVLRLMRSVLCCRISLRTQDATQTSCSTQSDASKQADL

Row | Structure (SMILES) | EC50 (EP2 [1]) [nM] | EC50 (EP2 [2]) [nM] | EC50 (EP2 [3]) [nM]
1 | CCCCCC(=O)c1ccc(N2C(COCc3ccc(C(=O)O)s3)CCS2(=O)=O)cc1 (stereo not drawn) [Compound 17] | 5420 | 1200 | 98
2 | CCCCCC(O)c1ccc(N2C(COCc3ccc(C(=O)O)s3)CCS2(=O)=O)cc1 (stereo not drawn) [Compound 15] | 8320 | 2920 | 115
